In patent US5874529A, “Conformationally constrained backbone cyclized peptide analogs” (Peptor Ltd., priority 1994, dated 1999):
Where two headings read alike, the source gives them in different places. Numbered stars: 1 amine (or outer) side, 2 acyl side, 3 side chain; on linkers, the order of the positions; unused ones are H or OH. Bridge positions count the residues as written; N and C are the ends. Square brackets hold non-standard residues; d marks the D form. Peptide text beside a SMILES is read from it. NGly(3-aminopropyl) = O=C(CN(CCCN[*:3])[*:1])[*:2]; N(2-Aminoethyl)Gly = O=C(CN(CCN[*:3])[*:1])[*:2]; N(CH2CH2CO)Gly = O=C(CN(CCC(=O)[*:3])[*:1])[*:2]

Key:
BK2 receptors = biological target: T1, BK2 receptors (Cavia porcellus, UniProt O70526); test: Bradykinin antagonist assay, guinea-pig ileum contraction
T1 construct: This tissue contains predominantly BK2 receptors; from tissue; host or cells: guinea-pig ileum, longitudinal muscle layer with adhering mesenteric plexus
T1 sequence (O70526 1-372): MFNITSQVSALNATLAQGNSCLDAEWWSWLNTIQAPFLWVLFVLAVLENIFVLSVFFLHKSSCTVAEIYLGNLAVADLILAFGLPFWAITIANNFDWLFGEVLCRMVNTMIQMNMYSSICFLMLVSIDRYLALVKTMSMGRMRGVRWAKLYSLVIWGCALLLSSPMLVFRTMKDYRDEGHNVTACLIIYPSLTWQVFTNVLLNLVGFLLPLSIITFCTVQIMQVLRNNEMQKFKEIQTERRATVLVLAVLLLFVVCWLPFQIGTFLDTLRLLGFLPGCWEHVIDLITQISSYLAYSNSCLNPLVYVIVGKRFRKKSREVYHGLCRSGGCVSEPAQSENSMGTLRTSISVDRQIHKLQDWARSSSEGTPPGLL
Description: The ileum of the guinea-pig was selected as the preparation for the bioassay. This tissue contains predominantly BK2 receptors. The preparation consists of the longitudinal muscle layer with the adhering mesenteric plexus. The isolated preparation was kept in Krebs solution and contractions were measured with an isometric force transducer. […] Atropine (1 μM) was always present.

[1] = In vitro biostability in human serum; assay type: in vitro ADME; conditions: 37° C., HPLC determination of peptide degradation over time, compared with PTR 3001, octreotide, SRIF
Description: The in vitro biostability of a SST cyclic peptide analog, PTR 3002, was measured in human serum, and was compared to the same sequence in a non-cyclic peptide analog (PTR 3001), to octreotide (Sandostatin), and to native somatostatin (SRIF). […] The assay was based on HPLC determination of peptide degradation as a function of time at 37° C.

[2] = biological target: T2, Somatostatin Receptor (SSTR) Subtype SSTR 5 (Homo sapiens, UniProt P35346); test: Inhibition of radioactive iodinated somatostatin (SRIF-14) binding, CHO cells expressing SSTR 5; conditions: read-out: percent inhibition of radioactive iodinated somatostatin (SRIF-14) binding, SSTR 5; for inhibition at 1 µM: Conc. 10^-6 M; for inhibition at 0.1 µM: Conc. 10^-7 M; for inhibition at 0.01 µM: Conc. 10^-8 M
T2 construct: expressed in transfected cells; host or cells: CHO cells
Text: (§1) The values presented are percent inhibition of radioactive iodinated somatostatin (SRIF-14) binding.

[3] = biological target: T3, Somatostatin Receptor (SSTR) Subtype SSTR 2B (Homo sapiens, UniProt P30874); test: Inhibition of radioactive iodinated somatostatin (SRIF-14) binding, CHO cells expressing SSTR 2B; conditions: read-out: percent inhibition of radioactive iodinated somatostatin (SRIF-14) binding, SSTR 2B; for inhibition at 1 µM: Conc. 10^-6 M; for inhibition at 0.1 µM: Conc. 10^-7 M; for inhibition at 0.01 µM: Conc. 10^-8 M
T3 construct: expressed in transfected cells; host or cells: CHO cells
Text: as §1

[4] = Lack of toxicity of cyclized peptide analogs in rats; assay type: in vivo
Text: These two doses are several orders of magnitude higher than those needed to elicit the desired endocrine effect. The peptides dissolved in saline produced no untoward side effects on the central nervous system, cardiovascular system, body temperature, nor on the periphery of the animals.

bradykinin receptors = biological target: T4, bradykinin receptors (Rattus norvegicus, UniProt P25023); test: Bradykinin antagonist assay, (3H)dopamine release from PC 12 cells; assay type: cell-based; conditions: At 10^-6 M; (3H)dopamine release from PC 12 cells stimulated by bradykinin
T4 construct: PC 12 cells that express bradykinin receptors; endogenous in cells; host or cells: PC12 cells
T4 sequence (P25023 1-396): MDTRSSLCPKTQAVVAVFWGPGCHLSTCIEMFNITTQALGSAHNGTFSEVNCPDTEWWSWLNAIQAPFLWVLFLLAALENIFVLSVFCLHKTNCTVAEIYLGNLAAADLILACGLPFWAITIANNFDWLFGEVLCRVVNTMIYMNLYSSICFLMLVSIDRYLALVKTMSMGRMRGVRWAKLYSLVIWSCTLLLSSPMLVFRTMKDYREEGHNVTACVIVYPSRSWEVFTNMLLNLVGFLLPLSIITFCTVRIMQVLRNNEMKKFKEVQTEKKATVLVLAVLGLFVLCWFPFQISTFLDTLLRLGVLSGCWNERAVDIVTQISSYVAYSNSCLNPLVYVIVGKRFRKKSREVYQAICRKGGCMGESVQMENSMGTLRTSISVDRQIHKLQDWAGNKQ
Description: Novel backbone cyclized peptide analogs of the present invention were assayed in vitro for bradykinin antagonist activity by protection of (^3 H) dopamine release from PC 12 cells that express bradykinin receptors. PC12 cells were grown in Dulbecco Modified Eagle's medium with high glucose, supplemented with 10% horse serum, 5% fetal calf serum, 130 units/ml penicillin and 0.1 mg/ml streptomycin. For experiments, cells were removed from the medium using 1 mmole EDTA and replated on collagen coated-12-well plates and assayed 24 hr later. Release of (^3 H)dopamine was determined as follows: cells were incubated for 1.5 hr at 37° C. with 0.5 ml of growth medium and […] (^3 H)DA (41 Ci/mmole) and […] pargyline followed by extensive washing with medium (3×1 ml) and release buffer consisting of (mM): 130 NaCl; 5 KCl; 25 NaHCO3; 1 NaH2 PO4; 10 glucose and 1.8 CaCl2. In a typical experiment, cells were incubated with 0.5 ml buffer for 5 consecutive incubation periods of 3 min each at 37° C. Spontaneous (^3 H)DA release was measured by collecting the medium released by the cells successively for the first 3 min period. Antagonists were added to the cells 3 min prior to stimulation (at the second period), and stimulation of (^3 H)DA release by 100 nmole of bradykinin are monitored during the 3 period by 60 mmole KCl. The remaining of the (^3 H)DA was extracted from the cells by over night incubation with 0.5 ml 0.1N HCl. (^3 H)DA release during each 3 min period was expressed as a % of the total (^3 H)DA content of the cells. Net evoked release was calculated from (^3 H)DA release during stimulation period after subtracting basal (^3 H)DA release in the preceding baseline period if not indicated otherwise.

[5] = At 10^-6 M, guinea-pig ileum, BK 2×10^-8 M, atropine 1 μM present

T3 sequence (P30874 1-356 isoform P30874-2): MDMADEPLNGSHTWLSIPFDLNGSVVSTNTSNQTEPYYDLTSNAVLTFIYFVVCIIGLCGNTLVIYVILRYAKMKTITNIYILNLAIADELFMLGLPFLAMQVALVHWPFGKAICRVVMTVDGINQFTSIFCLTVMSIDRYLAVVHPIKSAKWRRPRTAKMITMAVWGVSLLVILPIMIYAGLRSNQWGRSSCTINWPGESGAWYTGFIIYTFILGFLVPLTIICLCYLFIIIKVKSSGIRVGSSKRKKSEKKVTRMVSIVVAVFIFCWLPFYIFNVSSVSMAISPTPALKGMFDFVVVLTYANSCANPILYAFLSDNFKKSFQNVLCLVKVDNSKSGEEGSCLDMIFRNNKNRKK
T2 sequence (P35346 whole entry): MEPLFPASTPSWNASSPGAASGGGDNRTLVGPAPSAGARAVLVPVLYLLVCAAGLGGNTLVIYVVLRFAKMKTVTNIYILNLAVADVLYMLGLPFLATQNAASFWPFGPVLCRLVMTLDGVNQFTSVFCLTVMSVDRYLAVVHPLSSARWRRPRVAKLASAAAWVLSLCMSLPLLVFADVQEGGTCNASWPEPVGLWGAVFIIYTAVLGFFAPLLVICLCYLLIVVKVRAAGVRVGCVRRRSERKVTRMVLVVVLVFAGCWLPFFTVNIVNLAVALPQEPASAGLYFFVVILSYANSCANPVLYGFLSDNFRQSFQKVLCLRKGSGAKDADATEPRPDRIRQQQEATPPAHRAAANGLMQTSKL

| Compound | inhibition at 1 µM [2] [%] | inhibition at 0.1 µM [2] [%] | inhibition at 0.01 µM [2] [%] | inhibition at 1 µM [3] [%] | inhibition at 0.1 µM [3] [%] | inhibition at 0.01 µM [3] [%] | inhibition of BK activity (bradykinin receptors) [%] | inhibition of BK activity (BK2 receptors; [5]) [%] | other results |
| --- | --- | --- | --- | --- | --- | --- | --- | --- | --- |
| NC(N)=NCCC[C@H](NC(=O)[C@H](Cc1ccccc1)NC(=O)[C@@H]1CCCN1C(=O)[C@H](CO)NC(=O)[C@H](Cc1ccccc1)NC(=O)CNC(=O)[C@@H]1CCCN1C(=O)[C@@H]1CCCN1C(=O)[C@@H](N)CCCN=C(N)N)C(=O)O [BK, Arg^1 -Pro^2 -Pro^3 -Gly^4 -Phe^5 -Ser^6 -Pro^7 -Phe^8 -Arg^9, reference compound] (H-RPPGFSPFR-OH) |  |  |  |  |  |  |  |  | EC50 (BK2 receptors): 20 nM |
| C[C@@H](O)[C@H](NC(=O)CN1CCNC(=O)CCN(C(=O)[C@H](N)Cc2ccccc2)CC(=O)N[C@@H](Cc2ccccc2)C(=O)N[C@H](Cc2c[nH]c3ccccc23)C(=O)N[C@@H](CCCCN)C(=O)N[C@@H]([C@@H](C)O)C1=O)C(N)=O [PTR 3002] (H-[dF][N(CH2CH2CO)Gly]F[dW]KT[N(2-Aminoethyl)Gly]T-NH2; lactam 2-7) |  |  |  |  |  |  |  |  | in vitro biostability in human serum [1]: as stable as octreotide, is more stable than the corresponding non-cyclic structure, and is much more stable than SRIF |
| C[C@@H](O)[C@H](NC(=O)CNC(=O)[C@@H](NC(=O)[C@H](CCCCN)NC(=O)[C@@H](Cc1c[nH]c2ccccc12)NC(=O)[C@H](Cc1ccccc1)NC(=O)CNC(=O)[C@H](N)Cc1ccccc1)[C@@H](C)O)C(N)=O [PTR 3003] (H-[dF]GF[dW]KTGT-NH2) | 55 | 20 | 0 | 16 | 3 | 0 |  |  |  |
| C[C@@H](O)[C@H](NC(=O)CN1CCCNC(=O)CN(C(=O)[C@H](N)Cc2ccccc2)CC(=O)N[C@@H](Cc2ccccc2)C(=O)N[C@H](Cc2c[nH]c3ccccc23)C(=O)N[C@@H](CCCCN)C(=O)N[C@@H]([C@@H](C)O)C1=O)C(N)=O [PTR 3004] | 14 | 0 | 0 | 0 | 0 | 0 |  |  |  |
| C[C@@H](O)[C@H](NC(=O)CN1CCCNC(=O)CCN(C(=O)[C@H](N)Cc2ccccc2)CC(=O)N[C@@H](Cc2ccccc2)C(=O)N[C@H](Cc2c[nH]c3ccccc23)C(=O)N[C@@H](CCCCN)C(=O)N[C@@H]([C@@H](C)O)C1=O)C(N)=O [PTR 3007] (H-[dF][N(CH2CH2CO)Gly]F[dW]KT[NGly(3-aminopropyl)]T-NH2; lactam 2-7) | 19 | 9 | 0 | 0 | 0 | 0 |  |  | respiratory disturbances, stereotyped behavior, muscle tone ([4]; rats observed for 4 hours post administration): produced no respiratory disturbances, did not result in the appearance of stereotyped behavior, or produce any changes in muscle tone; tolerability ([4]; rats, 1.5 mg/kg, single intraperitoneal application): well tolerated |
| C[C@@H](O)[C@H](NC(=O)CN1CCC(=O)NCCCN(C(=O)[C@H](N)Cc2ccccc2)CC(=O)N[C@@H](Cc2ccccc2)C(=O)N[C@H](Cc2c[nH]c3ccccc23)C(=O)N[C@@H](CCCCN)C(=O)N[C@@H]([C@@H](C)O)C1=O)C(N)=O [PTR 3010] (H-[dF][NGly(3-aminopropyl)]F[dW]KT[N(CH2CH2CO)Gly]T-NH2; lactam 2-7) | 63 | 26 | 9 | 0 | 0 | 0 |  |  |  |
| Ada-(D)Arg-Arg-cyclo(N^α (1-(6-aminohexylene)Gly-Hyp-Phe-D-Asp)-D-Phe-Phe-Arg-OH [Example 1] |  |  |  |  |  |  | 30 |  | inhibition of BK activity (BK2 receptors): 24% |
| Ada-D-Arg-Arg-N^α (6-acetamidohexylene)Gly-Hyp-Phe-D-Asp(NH-Me)-D-Phe-Phe-Arg-OH [Example 2] |  |  |  |  |  |  | 0 | 0 |  |
| H-D-Arg-Arg-cyclo(N^α (1-(4-propanoyl))Gly-Hyp-Phe-N^α (3-amido-propylene)Gly)-Ser-D-Phe-Phe-Arc-OH [Example 3] |  |  |  |  |  |  |  | 10 |  |
| H-D-Arg-Arg-cyclo(N^α (4-propanoyl)Gly-Hyp-Phe-N^α (3-amido-propyl)-S-Phe)-Ser-D-Phe-Phe-Arg-OH [Example 4] |  |  |  |  |  |  | 17 | 17 |  |
